Test [1] has as its system GM-CSFR/JAK2/STAT5 pathway. The experiment in a line: CSTF-1 cell-based reporter assay (beta-lactamase reporter, GM-CSF stimulated). To be noted: Homo sapiens; csTF-1 cells, GM-CSF at 2 ng/mL, 4 hours; read-out: Cell Assay: CS TF-1 reporter assay IC50. The method, then:
CSTF-1 cells are derived from the human erythroleukemia cell line that is growth dependent on GM-CSF and has an intact GM-CSFR/JAK2/STAT5 pathway. The cell line contains stably integrated beta-lactamase reporter gene under the control of the […] (irf 1) response element recognized by the activated transcription factor STATS. csTF-1 cells (Invitrogen K1219) were washed with assay media (97% OPTIMEM/0.5% dialyzed FBS/0.1 mM NEAA/1 mM Na pyr/P/S) and seeded in the same media at 5×10^5 cell/mL in T150 flask. After 16 hour incubation, cells were seeded at 2×10^5 cell/well in 50 μl volume, into Costar, clear bottom, 96-well assay plates. Serial dilutions of compounds were added to the plates with final DMSO concentration at 0.5% and GM-CSF at 2 ng/mL and the plates were then incubated at […] and 5% CO2 for 4 hours. The plates were brought to room temperature before adding Substrate Mixture according to manufacturer's protocol (Invitrogen, Catalog #K1085). The assay plates containing the substrate mixture were incubated in the dark at room temperature for 2 hours. Blue and green fluorescence was measured with excitation at 409 nm and emission at 460 nm (for blue) and excitation at 409 nm and emission at 530 nm (for green) using Spectra Max Gemini EM.
In general terms: Reporter assays use an easily measured gene product as a stand-in for the process of interest.

The target of the next test is T1, JAK2 (Homo sapiens, UniProt O60674).
T1 construct: made in house; host or cells: T7 phage display or HEK-293 cells (alternatives; not specified per kinase)
Nature of the test: Competition binding assay, Kd against JAK2. Here is the method: (§1) Competition binding assays used herein were developed, validated and performed as described in Fabian et al., Nature Biotechnology 2005, 23, 329-336. Kinases were produced as fusions to T7 phage (See, Fabian et al. or WO04/015142) or alternatively, the kinases were expressed in HEK-293 cells and subsequently tagged with DNA for PCR detection (See, WO08/005,310). For the binding assays, streptavidin-coated magnetic beads were treated with biotinylated affinity ligands for 30 min at rt to generate affinity resins. The liganded beads were blocked with excess biotin and washed with blocking buffer (SeaBlock (Pierce), 1% BSA, 0.05% Tween 20, 1 mM DTT) to remove unbound ligand and to reduce non-specific binding. Binding reactions were assembled by combining kinase, liganded affinity beads, and test compounds in 1× binding buffer (20% SeaBlock, 0.17×PBS, 0.05% Tween 20, 6 mM DTT). Test compounds were prepared as 100× stocks in DMSO and rapidly diluted into the aqueous environment. DMSO was added to control assays lacking a test compound. Primary screen interactions were performed in polypropylene 384-well plates in a final volume of 34 μL, while Kd determinations were performed in polystyrene 96-well plates in a final volume of 135 μL. The assay plates were incubated at room temperature with shaking for 1 hour, long enough for binding reactions to reach equilibrium, and the affinity beads were washed extensively with wash buffer (1×PBS, 0.05% Tween 20) to remove unbound protein. The beads were then resuspended in elution buffer (1×PBS, 0.05% Tween 20, 2 μM non-biotinylated affinity ligand) and incubated at room temperature with shaking for 30 min. The kinase concentration in the eluates was measured by quantitative PCR. Each kinase was tested individually against each compound. Kds were determined using eleven serial threefold dilutions. A selectivity score, which is a quantitative measure of selectivity of a compound against a panel of enzymes, may be calculated for a compound by dividing the number of enzymes for which a compound meets a set criteria, (for example, a binding constant of 100 nM or less), by the total number of enzymes tested.

For the next test, the target named is T2, JAK3 (Homo sapiens, UniProt P52333).
T2 construct: made in house; host or cells: T7 phage display or HEK-293 cells (alternatives; not specified per kinase)
T2 sequence (P52333 1-1124): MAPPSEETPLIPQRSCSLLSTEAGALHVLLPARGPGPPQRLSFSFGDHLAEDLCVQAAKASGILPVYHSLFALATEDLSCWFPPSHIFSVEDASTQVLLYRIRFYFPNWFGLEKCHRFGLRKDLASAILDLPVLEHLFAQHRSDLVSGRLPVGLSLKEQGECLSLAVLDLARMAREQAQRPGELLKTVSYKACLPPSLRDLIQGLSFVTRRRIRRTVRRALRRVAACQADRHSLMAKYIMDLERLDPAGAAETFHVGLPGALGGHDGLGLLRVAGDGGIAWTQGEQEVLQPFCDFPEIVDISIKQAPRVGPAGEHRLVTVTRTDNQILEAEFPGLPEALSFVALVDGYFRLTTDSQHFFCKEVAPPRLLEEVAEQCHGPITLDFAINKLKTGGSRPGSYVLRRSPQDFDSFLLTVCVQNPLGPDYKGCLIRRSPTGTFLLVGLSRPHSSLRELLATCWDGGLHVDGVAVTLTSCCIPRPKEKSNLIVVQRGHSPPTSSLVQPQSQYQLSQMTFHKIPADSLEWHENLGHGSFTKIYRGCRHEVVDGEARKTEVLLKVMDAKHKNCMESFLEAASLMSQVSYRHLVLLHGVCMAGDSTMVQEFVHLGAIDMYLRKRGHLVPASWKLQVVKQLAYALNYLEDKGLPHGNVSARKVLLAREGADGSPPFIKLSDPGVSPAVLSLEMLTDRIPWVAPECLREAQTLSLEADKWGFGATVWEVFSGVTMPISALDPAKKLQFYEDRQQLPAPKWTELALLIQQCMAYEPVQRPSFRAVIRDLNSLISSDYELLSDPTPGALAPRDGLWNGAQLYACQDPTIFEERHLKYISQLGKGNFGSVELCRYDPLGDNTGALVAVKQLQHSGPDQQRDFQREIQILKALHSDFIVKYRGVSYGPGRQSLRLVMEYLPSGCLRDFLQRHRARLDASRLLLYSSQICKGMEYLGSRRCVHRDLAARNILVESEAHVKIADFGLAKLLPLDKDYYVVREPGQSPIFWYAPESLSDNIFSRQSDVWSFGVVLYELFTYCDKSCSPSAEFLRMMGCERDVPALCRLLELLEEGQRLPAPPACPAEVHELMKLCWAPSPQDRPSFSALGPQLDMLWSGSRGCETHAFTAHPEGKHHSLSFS
Nature of the test: Competition binding assay, Kd against JAK3. The method, then:
as §1

The test system of test [2] is distinct kinases tested excluding mutant variants, typically 359 or 386 kinases. The experiment in a line: Kinase selectivity in competition binding assays (S10 score; kinases within 100-fold of JAK2 Kd). To be noted: compound at 10 μM; fraction of kinases with inhibition of 90% or greater. The method, then:
as §1
In certain embodiments, the compounds provided herein bind to JAK2 kinase with higher specificity as compared to non-mutant and non-JAK family kinases. For certain compounds provided herein, binding constants for less than 10 non-mutant and non-JAK family kinases are within 100-fold of the binding constant for JAK2 kinase for compounds provided herein. For certain compounds provided herein, binding constants for less than 8 non-mutant and non-JAK family kinases are within 100-fold of the binding constant for JAK2 kinase for compounds provided herein. […]

Consider four molecules from patent publication US20130225614A1, “4-AZOLYLAMINOQUINAZOLINE DERIVATIVES AND METHODS OF USE THEREOF” (Ambit Biosciences Corporation, priority 2010, published 2013).

Molecules are shown by their SMILES. pIC50, pKd: −log10 of the molar value. Some results are limits rather than exact numbers.

T1 sequence (O60674 whole entry): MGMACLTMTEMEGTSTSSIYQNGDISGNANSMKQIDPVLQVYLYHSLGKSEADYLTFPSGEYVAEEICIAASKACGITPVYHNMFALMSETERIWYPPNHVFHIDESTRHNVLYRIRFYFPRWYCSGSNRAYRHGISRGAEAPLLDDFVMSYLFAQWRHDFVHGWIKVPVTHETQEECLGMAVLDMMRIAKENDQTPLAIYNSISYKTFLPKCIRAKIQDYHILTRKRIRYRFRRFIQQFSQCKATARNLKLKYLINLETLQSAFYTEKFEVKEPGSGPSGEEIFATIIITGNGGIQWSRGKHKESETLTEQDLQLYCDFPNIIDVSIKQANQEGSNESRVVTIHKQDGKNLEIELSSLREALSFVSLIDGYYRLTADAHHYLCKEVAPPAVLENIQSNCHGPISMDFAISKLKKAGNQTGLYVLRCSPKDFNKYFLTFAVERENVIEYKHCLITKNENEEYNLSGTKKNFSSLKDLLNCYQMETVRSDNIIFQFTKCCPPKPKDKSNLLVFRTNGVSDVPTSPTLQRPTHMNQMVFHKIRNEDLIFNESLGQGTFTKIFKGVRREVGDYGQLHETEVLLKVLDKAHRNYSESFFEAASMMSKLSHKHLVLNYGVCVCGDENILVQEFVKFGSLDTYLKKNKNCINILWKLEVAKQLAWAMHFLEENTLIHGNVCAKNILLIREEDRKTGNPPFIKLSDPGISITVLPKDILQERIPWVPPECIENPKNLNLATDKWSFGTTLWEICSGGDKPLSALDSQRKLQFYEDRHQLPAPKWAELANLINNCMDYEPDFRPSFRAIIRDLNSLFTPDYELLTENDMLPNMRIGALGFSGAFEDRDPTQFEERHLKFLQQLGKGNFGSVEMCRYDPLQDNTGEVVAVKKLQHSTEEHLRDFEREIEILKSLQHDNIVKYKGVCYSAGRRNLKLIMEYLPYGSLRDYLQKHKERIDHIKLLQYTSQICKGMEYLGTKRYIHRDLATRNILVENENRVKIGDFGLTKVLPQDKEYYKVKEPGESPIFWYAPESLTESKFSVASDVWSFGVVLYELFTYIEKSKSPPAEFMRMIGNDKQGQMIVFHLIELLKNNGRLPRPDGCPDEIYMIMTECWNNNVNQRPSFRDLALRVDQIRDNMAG

For orientation: pIC50 means −log10 of the IC50, conventionally taken in molar units. As a reminder, the pKd is the negative decadic logarithm of the Kd, by convention in mol/L. `Cn1cnc(Nc2nc(C(O)c3ccc(F)cc3)nc3ccccc23)c1` (racemic) [Example 2, (R,S)-(4-fluorophenyl)(4-(1-methyl-1H-imidazol-4-ylamino)quinazolin-2-yl)methanol]: in test [1], the pIC50 is 6.30 to 7.00. Besides, the results for the pKd at JAK2 and on JAK3 were not below 8.00 and 7.00 to 8.00, respectively. The “S-Score: S(10) at 10 μM” value in test [2] was “A (A ≦ 0.3)”.
On to `OC(c1ccc(F)cc1)c1nc(Nc2c[nH]cn2)c2ccccc2n1` (racemic) [Example 3, (R,S)-(4-(1H-imidazol-4-ylamino)quinazolin-2-yl)(4-fluorophenyl)methanol], for which the pIC50 in test [1] is less than 6.30. Moreover, the pKd on JAK2 was 7.30 to 8.00; at JAK3, less than 7.00. Moreover, the “S-Score: S(10) at 10 μM” value in test [2] is listed as “A (A ≦ 0.3)”.
The matching figures for `Cc1cnc(Nc2nc(C(O)c3ccc(F)cc3)nc3ccccc23)s1` (racemic) [Example 5, (R,S)-(4-fluorophenyl)(4-(5-methylthiazol-2-ylamino)quinazolin-2-yl)methanol]: less than 6.30, not below 8.00, less than 7.00 and “A (A ≦ 0.3)”.
Turning to `OC(c1ccc(F)cc1)c1nc(Nc2cscn2)c2ccccc2n1` (racemic) [Example 4, (R,S)-(4-fluorophenyl)(4-(thiazol-4-ylamino)quinazolin-2-yl)methanol], the pIC50 in test [1] is less than 6.30. Further, the negative-log Kd (pKd) on JAK2 was 7.30 to 8.00; on JAK3 it was less than 7.00. Further, in test [2], the “S-Score: S(10) at 10 μM” value is listed as “A (A ≦ 0.3)”.
